Patent US20090312310A1 (priority 2006, published 2009)

Biological target: T1, Mdm2/p53 binding (Homo sapiens, UniProt Q00987, L33E)
T1 construct: having Mdm2 amino acids at positions 25 to 108
Assay: Mdm2/p53 binding assay (HTRF, His-p53 / GST-Mdm2)
Conditions: His-p53 (aa 1-132) and GST-Mdm2 (aa 25-108, L33E), 6.25 nM each; 25° C., 1 hour
Protocol: Next, a test compound was diluted with protein buffer solution containing 10% DMSO, and this test compound dilution was added in an amount of 4 μL/well to the plate.
These dilutions were added in an amount of 8 μL/well (total reaction solution volume: 20 μl/well). Then, the plate was left at 25° C. for 1 hour.
C (correction factor)=(A−BI)/D
The R value calculated from the well supplemented with His-p53, GST-Mdm2, the test compound, and each antibody was defined as R (sample). The R value calculated from the well supplemented with His-p53, GST-Mdm2, and each antibody but without the test compound was defined as R (control). The R value calculated from the well supplemented with GST-Mdm2, the test compound, and each antibody but without His-p53 was defined as R (background). T/C was calculated from the formula shown below. An IC50 value for Mdm2/p53 binding was calculated by sigmoid fitting using Prism (GraphPad Software).
T/C=(R (sample)−R (background))/(R (control)−R (background))

T1 sequence (Q00987 25-108 L33E, species assumed): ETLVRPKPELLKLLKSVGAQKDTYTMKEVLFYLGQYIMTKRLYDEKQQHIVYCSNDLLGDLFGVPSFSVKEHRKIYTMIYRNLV

Structure (SMILES) | IC50 [nM]
CC(C)C1=C(C(=O)N2[C@H](C)CC[C@H]2C(=O)N2CCN(CCO)[C@H](C)C2)SC2=N[C@@](C)(c3ccc(Cl)cc3)[C@@H](c3ccc(Cl)cc3)N21 [Example 204, 2-{(2R)-4-[(5R)-1-{[(5R,6S)-5,6-Bis(4-chlorophehyl)-3-isopropyl-6-methyl-5,6-dihydroimidazo[2,1-b][1,3]thiazol-2-yl]carbonyl}-5-methyl-L-prolyl]-2-methylpiperazin-1-yl}ethanol] | 19
CC[C@@H]1CC[C@@H](C(=O)N2CCN(C(C)=O)[C@H](C)C2)N1C(=O)C1=C(C(C)C)N2C(=N[C@@](C)(c3ccc(Cl)cc3)[C@H]2c2ccc(Br)cc2)S1 [Example 155, (5R,6S)-2-{[(2S,5R)-2-{[(3R)-4-Acetyl-3-methylpiperazin-1-yl]carbonyl}-5-ethylpyrrolidin-1-yl]carbonyl}-5-(4-bromophenyl)-6-(4-chlorophenyl)-3-isopropyl-6-methyl-5,6-dihydroimidazo[2,1-b][1,3]thiazole] | 30
CC(C)C1=C(C(=O)N2[C@H](C)CC[C@H]2C(=O)N2CCN(C)[C@H](C)C2)SC2=N[C@@](C)(c3ccc(Cl)cc3)[C@@H](c3ccc(C(F)(F)F)cc3)N21 [Example 180, (5R,6S)-6-(4-Chlorophenyl)-2-{[(2S,5R)-2-{[(3R)-3,4-dimethylpiperazin-1-yl]carbonyl}-5-methylpyrrolidin-1-yl]carbonyl}-3-isopropyl-6-methyl-5-[4-(trifluoromethyl)phenyl]-5,6-dihydroimidazo[2,1-b][1,3]thiazole] | 13
CC(C)C1=C(C(=O)N2CCC[C@H]2COC2CCN(C)CC2)SC2=N[C@@](C)(c3ccc(Cl)cc3)[C@@H](c3ccc(Cl)cc3)N21 [Example 211, (5R,6S)-5,6-Bis(4-chlorophenyl)-3-isopropyl-6-methyl-2-{[(2S)-2-{[(1-methylpiperidin-4-yl)oxy]methyl}pyrrolidin-1-yl]carbonyl}-5,6-dihydroimidazo[2,1-b][1,3]thiazole] | 12
CC(C)C1=C(C(=O)N2[C@H](C)CC[C@H]2C(=O)N2CCN(CCO)[C@H](C)C2)SC2=N[C@@](C)(c3ccc(Cl)nc3)[C@@H](c3ccc(Cl)c(F)c3)N21 [Example 260, 2-{(2R)-4-[(5R)-1-{[(5R,6S)-5-(4-chloro-3-fluorophenyl)-6-(6-chloropyridin-3-yl)-3-isopropyl-6-methyl-5,6-dihydroimidazo[2,1-b][1,3]thiazol-2-yl]carbonyl}-5-methyl-L-prolyl]-2-methylpiperazin-1-yl}ethanol] | 15
CC[C@@H]1CC[C@@H](C(=O)N2C[C@@H](C)N[C@@H](C)C2)N1C(=O)C1=C(C(C)C)N2C(=N[C@@](C)(c3ccc(Cl)cc3)[C@H]2c2ccc(Cl)cc2)S1 [Example 105, (5R,6S)-5,6-Bis(4-chlorophenyl)-2-[((2S,5R)-2-{[(3R,5S)-3,5-dimethylpiperazin-1-yl]carbonyl}-5-ethylpyrrolidin-1-yl)carbonyl]-3-isopropyl-6-methyl-5,6-dihydroimidazo[2,1-b][1,3]thiazole] | 18
CC(C)C1=C(C(=O)N2[C@H](C)CC[C@H]2C(=O)N2C[C@@H](N)[C@H](F)C2)SC2=N[C@@](C)(c3ccc(Cl)cc3)[C@@H](c3ccc(Cl)cc3)N21 [Example 240, (3R,4R)-1-[(5R)-1-{[(5R,6S)-5,6-Bis(4-chlorophenyl)-3-isopropyl-6-methyl-5,6-dihydroimidazo[2,1-b][1,3]thiazol-2-yl]carbonyl}-5-methyl-L-prolyl]-4-fluoropyrrolidin-3-amine] | 13
CC(C)C1=C(C(=O)N2CCC[C@H]2C(=O)N2CCC[C@H]2C(=O)O)SC2=N[C@@](C)(c3ccc(Cl)cc3)[C@@H](c3ccc(Cl)cc3)N21 [Example 68, 1-{[(5R,6S)-5,6-Bis(4-chlorophenyl)-3-isopropyl-6-methyl-5,6-dihydroimidazo[2,1-b][1,3]thiazol-2-yl]carbonyl}-L-prolyl-L-proline] | 46
CC(C)C1=C(CN2CCNC(=O)C2)SC2=NC(C)(c3ccc(Cl)cc3)C(c3ccc(Cl)cc3)N21 (racemic) [Example 18, 4-{[(5R*,6S*)-5,6-Bis(4-chlorophenyl)-3-isopropyl-6-methyl-5,6-dihydroimidazo[2,1-b][1,3]thiazol-2-yl]methyl}piperazin-2-one] | 87
CCCCC[C@]1(C)N=C2SC(C(=O)N3CCC[C@H]3C(=O)N(C)C)=C(C(C)C)N2[C@@H]1c1ccc(Cl)cc1 (relative stereo) [Example 99 (Cis-Isomer), 1-{[(5R*,6S*)-5-(4-chlorophenyl)-3-isopropyl-6-methyl-6-pentyl-5,6-dihydroimidazo[2,1-b][1,3]thiazol-2-yl]carbonyl}-N,N-dimethyl-L-prolinamide] | 194
CC(C)C1=C(C(=O)N2[C@H](C)CC[C@H]2C(=O)N2CCN(C)[C@H](C)C2)SC2=N[C@@](C)(c3ccc(Cl)cc3)[C@@H](c3ccc(Cl)c(F)c3)N21 [Example 167, (5R,6S)-5-(4-Chloro-3-fluorophenyl)-6-(4-chlorophenyl)-2-{[(2S,5R)-2-{[(3R)-3,4-dimethylpiperazin-1-yl]carbonyl}-5-methylpyrrolidin-1-yl]carbonyl}-3-isopropyl-6-methyl-5,6-dihydroimidazo[2,1-b][1,3]thiazole] | 10
CNc1cc([C@]2(C)N=C3SC(C(=O)N4CCC[C@H]4C(=O)N4CCN(C)CC4)=C(C(C)C)N3[C@@H]2c2ccc(Cl)cc2)ccc1Cl [Example 102] | 80

Second part, the molecule after the results:

IC50 [nM] | Structure (SMILES)
51 | CC(C)C1=C(C(=O)N(C)C)SC2=N[C@@](C)(c3ccc(Cl)cc3)[C@@H](c3ccc(Cl)cc3)N21 [Example 39, (5R,6S)-5,6-Bis(4-chlorophenyl)-3-isopropyl-N,N,6-trimethyl-5,6-dihydroimidazo[2,1-b][1,3]thiazole-2-carboxamide]
29 | CC(=O)N1CCN(C(=O)CN(CC(C)C)C(=O)C2=C(C(C)C)N3C(=N[C@@](C)(c4ccc(Cl)cc4)[C@H]3c3ccc(Cl)cc3)S2)CC1 [Example 88, (5R,6S)—N-[2-(4-Acetylpiperazin-1-yl)-2-oxoethyl]-5,6-bis(4-chlorophenyl)-N-isobutyl-3-isopropyl-6-methyl-5,6-dihydroimidazo[2,1-b][1,3]thiazole-2-carboxamide]
4 | CC(C)C1=C(C(=O)N(C(C)C)[C@H]2C[C@H](N(C)C)C2)SC2=N[C@@](C)(c3ccc(Cl)cc3)[C@@H](c3ccc(Cl)cc3)N21 [Example 219, (5R,6S)-5,6-Bis(4-chlorophenyl)-N-[trans-3-(dimethylamino)cyclobutyl]-N,3-diisopropyl-6-methyl-5,6-dihydroimidazo[2,1-b][1,3]thiazole-2-carboxamide]
135 | CC(C)C1=C(C(=O)N2CC[C@H]2C(=O)N(C)C)SC2=N[C@@](C)(c3ccc(Cl)cc3)[C@@H](c3ccc(Cl)cc3)N21 [Example 93, (2S)-1-{[(5R,6S)-5,6-Bis(4-chlorophenyl)-3-isopropyl-6-methyl-5,6-dihydroimidazo[2,1-b][1,3]thiazol-2-yl]carbonyl}-N,N-dimethylazetidine-2-carboxamide]
23 | CC(=O)N(C)C[C@H](C)N(C)C(=O)C1=C(C(C)C)N2C(=N[C@@](C)(c3ccc(Cl)cc3)[C@H]2c2ccc(Cl)cc2)S1 [Example 74, (5R,6S)—N-{(1S)-2-[Acetyl(methyl)amino]-1-methylethyl}-5,6-bis(4-chlorophenyl)-3-isopropyl-N,6-dimethyl-5,6-dihydroimidazo[2,1-b][1,3]thiazole-2-carboxamide]
143 | CC(C)C1=C(C(=O)N2CCC[C@H]2c2n[nH]c(=O)o2)SC2=N[C@@](C)(c3ccc(Cl)cc3)[C@@H](c3ccc(Cl)cc3)N21 [Example 89, 5-((2S)-1-{[(5R,6S)-5,6-Bis(4-chlorophenyl)-3-isopropyl-6-methyl-5,6-dihydroimidazo[2,1-b][1,3]thiazol-2-yl]carbonyl}pyrrolidin-2-yl)-1,3,4-oxadiazol-2(3H)-one]
76 | CC(C)C1=C(C(=O)N(C)C)SC2=N[C@@](C)(c3ccc(Cl)nc3)[C@@H](c3ccc(Cl)cc3)N21 [Example 220, (5R,6S)-5-(4-Chlorophenyl)-6-(6-chloropyridin-3-yl)-3-isopropyl-N,N,6-trimethyl-5,6-dihydroimidazo[2,1-b][1,3]thiazole-2-carboxamide]
84 | CC(C)C1=C(C(=O)N(C)[C@H]2C[C@@H](O)C2)SC2=N[C@@](C)(c3ccc(Cl)cc3)[C@@H](c3ccc(Cl)cc3)N21 [Example 164, (5R,6S)-5,6-Bis(4-chlorophenyl)-N-(cis-3-hydroxycyclobutyl)-3-isopropyl-N,6-dimethyl-5,6-dihydroimidazo[2,1-b][1,3]thiazole-2-carboxamide]
